From US6756210B2, “Linoleic acid diol and glucuronide conjugate levels as diagnostic markers of disorders of abnormal regulation of cytochrome P450 metabolism of unsaturated fatty acids” (The Regents of the University of California, priority 2001, dated 2004)
Where two headings read alike, the source gives them in different places.

Assays:
[1] = target: T1, recombinant mouse sEH (MsEH) (Mus musculus, UniProt P34914); assay: Inhibition of recombinant mouse sEH (MsEH); format: biochemical
T1 sequence (P34914 1-554): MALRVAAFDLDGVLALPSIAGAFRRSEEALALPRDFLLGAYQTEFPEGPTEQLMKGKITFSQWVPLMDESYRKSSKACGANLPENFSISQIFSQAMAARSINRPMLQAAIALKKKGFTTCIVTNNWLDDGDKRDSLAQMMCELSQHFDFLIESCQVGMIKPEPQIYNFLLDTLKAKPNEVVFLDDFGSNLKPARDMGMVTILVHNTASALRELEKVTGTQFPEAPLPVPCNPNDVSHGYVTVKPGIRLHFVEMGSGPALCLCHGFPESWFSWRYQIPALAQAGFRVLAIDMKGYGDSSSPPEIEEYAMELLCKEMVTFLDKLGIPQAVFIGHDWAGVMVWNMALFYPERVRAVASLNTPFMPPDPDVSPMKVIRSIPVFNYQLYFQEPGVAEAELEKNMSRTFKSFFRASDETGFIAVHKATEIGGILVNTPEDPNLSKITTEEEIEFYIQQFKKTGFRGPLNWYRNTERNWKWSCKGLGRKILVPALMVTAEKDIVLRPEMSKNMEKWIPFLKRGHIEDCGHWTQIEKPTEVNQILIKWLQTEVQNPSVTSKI

[2] = target: T2, Human sEH (HsEH) (Homo sapiens, UniProt P34913); assay: Inhibition of recombinant human sEH (HsEH); format: biochemical; settings: HsEH 0.26 μM
T2 sequence (P34913 1-555): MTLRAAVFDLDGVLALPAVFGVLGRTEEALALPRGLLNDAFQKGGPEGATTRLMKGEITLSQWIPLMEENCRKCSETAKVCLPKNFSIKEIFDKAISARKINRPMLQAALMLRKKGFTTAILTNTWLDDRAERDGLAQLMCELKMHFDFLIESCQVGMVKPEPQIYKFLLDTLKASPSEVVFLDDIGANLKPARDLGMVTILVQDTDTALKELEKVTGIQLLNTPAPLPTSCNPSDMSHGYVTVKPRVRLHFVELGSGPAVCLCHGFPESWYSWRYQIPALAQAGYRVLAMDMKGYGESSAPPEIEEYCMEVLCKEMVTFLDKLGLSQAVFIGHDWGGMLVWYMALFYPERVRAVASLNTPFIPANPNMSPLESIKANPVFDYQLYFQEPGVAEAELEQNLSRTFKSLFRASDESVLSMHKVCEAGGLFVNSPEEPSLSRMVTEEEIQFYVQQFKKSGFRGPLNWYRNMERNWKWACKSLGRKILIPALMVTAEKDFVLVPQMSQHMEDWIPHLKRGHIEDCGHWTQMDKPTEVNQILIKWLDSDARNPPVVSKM

[3] = Table 1, MsEH 0.13 μM, read-out: Mouse sEH IC50
[4] = Table 2, MsEH 0.13 μM, read-out: Mouse sEH IC50

SMILES | IC50 [1, 3] [nM] | IC50 ([2]; Table 1) [nM] | IC50 [1, 4] [nM] | IC50 ([2]; Table 2) [nM] | IC50 [1] [nM]
O=C(Nc1c2ccccc2nc2ccccc12)NC1CCCCC1 [compound 559] | 80 ± 10 | 140 ± 10 |  |  | 
OC(c1ccccc1)C1OC1c1ccc(F)cc1 (racemic) [R=4-F-C6H4, R′=C6H5, X—Y=CH—OH, ±] |  |  | 72000 ± 16000 | 18000 ± 2000 | 
O=C(O)CCCCCCCCCCCNC(=O)Nc1ccc2ccccc2c1 [compound 283] | 700 ± 200 | 1120 ± 30 |  |  | 
CCCCCCCNC(=O)NC1CCCCC1 [compound 508] | 50 ± 10 | 100 ± 10 |  |  | 
CCCCCCCCCCCCNC(=O)NC1CCCCC1 [compound 297] | 50 ± 10 | 100 ± 10 |  |  | 
O=C(NC(=O)c1ccc(Cl)cc1)NC1CCCCC1 [compound 257] | 50 ± 10 | 100 ± 40 |  |  | 
O=C(NCc1ccc([N+](=O)[O-])cc1)NC1CCCCC1 [compound 341] | 2300 ± 300 | 4300 ± 400 |  |  | 
O=C(Nc1ccc([N+](=O)[O-])cc1)NC1CCCCC1 [compound 38] | 170 ± 10 | 360 ± 20 |  |  | 
O=C(Nc1ccc(Oc2ccccc2)cc1)NC1CCCCC1 [compound 140] | 50 ± 10 | 100 ± 10 |  |  | 
CC(C)(C)CC(C)(C)NC(=O)NC1C2CC3CC(C2)CC1C3 (stereo not drawn) [compound 375] | 180 ± 10 | 110 ± 10 |  |  | 
O=C(Nc1ccccc1)NC1CCCCC1 [compound 21] | 760 ± 20 | 1390 ± 20 |  |  | 
CCCCCCCCNC(=O)NCCC [compound 380] | 730 ± 30 | 680 ± 30 |  |  | 
O=C(Nc1ccncc1)NC1CCCCC1 [compound 100] | 70 ± 10 | 150 ± 10 |  |  | 
CCCCCCCCNC(=O)Nc1ccccc1 [compound 151] |  | 580 ± 10 |  |  | 2290 ± 30
O=C(NC1CCCCC1)Oc1ccccc1CO [compound 224] |  | 320 ± 80 |  |  | 990 ± 20
O=C(NC1CCCCC1)Oc1ccc2ccccc2c1 [compound 110] |  | 350 ± 10 |  |  | 210 ± 10
O=C(NCCCCCCO)NC1CCCCC1 [compound 344] | 50 ± 10 | 2500 ± 80 |  |  | 
CC(C)c1ccc(NC(=O)NCCc2ccccc2)cc1 [compound 156] | 200 ± 10 | 480 ± 10 |  |  | 
O=C(NCC1CCCCC1)NC1CCCCC1 [compound 57] | 60 ± 10 | 160 ± 10 |  |  | 

SMILES | IC50 [1, 3] [nM] | IC50 ([2]; Table 1) [nM] | IC50 [1, 4] [nM] | IC50 ([2]; Table 2) [nM] | IC50 [1] [nM]
CCOC(CCCNC(=O)Nc1cccc(Cl)c1)OCC [compound 167] | 390 ± 20 | 3770 ± 30 |  |  | 
C[C@H](NC(=O)NC1CCCCC1)c1ccccc1 [compound 544] | 50 ± 10 | 100 ± 10 |  |  | 
O=C(NC1CCCCC1)OCCCCc1ccc([N+](=O)[O-])cc1 [compound 460] | 100 ± 20 | 180 ± 10 |  |  | 
O=C(NCCC1=CCCCC1)NC1CCCCC1 [compound 359] | 50 ± 10 | 100 ± 10 |  |  | 
ON=C(c1ccccc1)C1OC1c1ccccc1 (racemic) [R=C6H5, R′=C6H5, X—Y=C═NOH, ±] |  |  | 3500 ± 500 | 290 ± 10 | 
CCCCCNC(=O)NC1CCCCC1 [compound 509] | 60 ± 10 | 920 ± 80 |  |  | 
O=C(NC1CCCCCC1)NC1CCCCC1 [compound 22] | 50 ± 100 | 100 ± 10 |  |  | 
O=C(NC1CCCCC1)OCc1cccc2ccccc12 [compound 262] | 50 ± 10 | 100 ± 20 |  |  | 
CCCCCCCCCCCCCCNC(=O)NC1CCCCC1 [compound 477] | 110 ± 10 | 240 ± 10 |  |  | 
CC(NC(=O)NC1CCCCC1)C1C2CC3CC(C2)CC1C3 (stereo not drawn) [compound 358] | 50 ± 10 | 180 ± 40 |  |  | 
COC(c1ccccc1)C1OC1c1ccc(-c2ccccc2)cc1 (racemic) [R=4-C6H5—C6H4, R′=C6H5, X—Y=CH—OCH3, ±] |  |  | 480 ± 50 | 1360 ± 70 | 
CC1CCC(C(C)C)C(OC(=O)NC2CCCCC2)C1 (stereo not drawn) [compound 261] | 80 ± 10 | 120 ± 10 |  |  | 
O=C(NC1CCCCC1)OCCCCC1CCCCC1 [compound 276] | 1100 ± 100 | 340 ± 20 |  |  | 
O=C(NCCCN1CCOCC1)NC1CCCCC1 [compound 377] | 700 ± 100 | 17800 ± 700 |  |  | 
CCCNC(=O)NC1CCCCCCCCCCC1 [compound 189] | 800 ± 30 | 1000 ± 200 |  |  | 
CC(C)(C)OC(=O)NCCNC(=O)NC1CCCCC1 [compound 124] | 50 ± 10 | 140 ± 10 |  |  | 
O=C(NCC1CCCCC1)NC12CC3CC(CC(C3)C1)C2 [compound 437] | 50 ± 10 | 100 ± 10 |  |  | 
O=C(NCCc1ccccc1)NC1CCCCC1 [compound 36] | 60 ± 10 | 160 ± 20 |  |  | 
O=C(c1ccccc1)C1OC1c1ccc(-c2ccccc2)cc1 (racemic) [R=4-C6H5—C6H4, R′=C6H5, X—Y=C═O, ±] |  |  | 140 ± 10 | 200 ± 10 | 

SMILES | IC50 [1, 3] [nM] | IC50 ([2]; Table 1) [nM] | IC50 [1, 4] [nM] | IC50 ([2]; Table 2) [nM] | IC50 [1] [nM]
[O-][S+](c1ccccc1)C1OC1c1ccccc1 (racemic) [R=C6H5, R′=C6H5, X—Y=S═O, ±] |  |  | 2300 ± 400 | 310 ± 20 | 
CCCNC(=O)Nc1cccc2ccccc12 [compound 253] | 100 ± 20 | 280 ± 10 |  |  | 
CCCCCCCCCCOC(=O)NC [compound 248] |  | 2900 ± 600 |  |  | 330 ± 50
O=C(c1ccccc1)C1OC1c1ccc(F)cc1 (racemic) [R=4-F-C6H4, R′=C6H5, X—Y=C═O, ±] |  |  | 1300 ± 300 | 300 ± 100 | 
O=C(NCCCc1ccccc1)NC1CCCCC1 [compound 104] | 40 ± 10 | 290 ± 10 |  |  | 
CCCCCCCCCCNC(=O)Nc1cccc(Cl)c1 [compound 172] | 120 ± 10 | 300 ± 10 |  |  | 
C[C@@H](NC(=O)NC1CCCCC1)c1ccccc1 [compound 545] | 50 ± 10 | 3700 ± 300 |  |  | 
O=C(Nc1cccc2ccccc12)NC1CCCCC1 [compound 59] | 850 ± 20 | 480 ± 10 |  |  | 
Cc1ccc(C(O)C2OC2c2ccc(-c3ccccc3)cc2)cc1 (racemic) |  |  | 90 ± 10 | 150 ± 20 | 
O=C(NCC12CC3CC(CC(C3)C1)C2)NC12CC3CC(CC(C3)C1)C2 [compound 412] | 50 ± 10 | 100 ± 10 |  |  | 
C(=NC1CCCCC1)=NC1CCCCC1 |  | 470 ± 10 |  |  | 250 ± 20
CC(C)c1ccc(NC(=O)NCC2CCCCC2)cc1 [compound 180] | 60 ± 10 | 100 ± 10 |  |  | 
O=C(NC1CCCCCCCCCCC1)NC12CC3CC(CC(C3)C1)C2 [compound 413] | 50 ± 10 | 100 ± 10 |  |  | 
O=C(NC1CCCCC1)OC1CCCCC1 [compound 42] | 60 ± 10 | 130 ± 10 |  |  | 
O=C(NCC1CCCCC1)Nc1cccc(Cl)c1 [compound 179] | 60 ± 10 | 100 ± 10 |  |  | 
CCCCCCCCCCCNC(=O)NCCCC [compound 556] | 200 ± 20 | 740 ± 70 |  |  | 
O=C(NC12CC3CC(CC(C3)C1)C2)NC12CC3CC(CC(C3)C1)C2 [compound 411] | 50 ± 10 | 100 ± 10 |  |  | 
CCCCCCCCCCCCCNC(=O)NC1CCCCC1 [compound 354] | 50 ± 10 | 100 ± 10 |  |  | 
CCCCCCCCNC(=O)OC [compound 72] | 110 ± 10 | 480 ± 10 |  |  | 
